The record followed here is paper PMC11820896, “New Compounds with Enhanced Biological Activity Through the Strategic Introduction of Silylated Groups into Hydroxystearic Acids” (Molecules, 2025).

The structures appear in SMILES notation.

Series [1] has as its system HT29 cells. In words: Western blot of γH2AX (DNA damage). To be noted: 50 nM, 6 h. In kind it is cell-based, human. Here is the method: HT29 were seeded at a density of 1.5 × 10^4 cell/cm^2 in a Petri dish and, after 24 h, treated for 6 h with 50 nM of compound 4. Cells were harvested, and histones were extracted by previously isolated nuclei according to […] al.. The proteins were resolved on a 10% gel in MES buffer at 200 V for 35 min and immunoblotted with mouse anti-acetylated lysines (Millipore, Billerica, MA, USA) or rabbit anti-γH2Ax (Santa Cruz Biotechnology, Dallas, TX, USA) primary antibodies. The membranes were developed with Clarity Western ECL Substrate (Bio-Rad, Hercules, CA, USA) after incubation with mouse or rabbit secondary horseradish peroxidase-conjugated antibody (GE Healthcare, Chicago, IL, USA). SDS-PAGE was stained with Coomassie Brilliant Blue R-250 (Bio-Rad, Hercules, CA, USA), while densitometric analyses were performed using a Fluor-S Max MultiImager (Bio-Rad, Hercules, CA, USA), and relative quantification of histone acetylation and histone H2Ax phosphorylation signals were normalized to the H1 signal as a control.
A general note: Immunoblotting shows a protein as a band on a membrane.

For a further series, the system named is U2OS. Briefly: MTT assay, U2OS cells. In kind it is cell-based. To be noted: Homo sapiens, means of four experiments, na = not active, read-out: In vitro cytotoxic activity (IC50), U2OS. Here is the method:
(§1) The human colorectal adenocarcinoma (Caco-2), human colorectal adenocarcinoma (HT29), normal human intestinal (I407), human cervical cancer (HeLa), human breast cancer (MCF7), human bone osteosarcoma (U2OS), and human acute T-cell leukemia (Jurkat J6) cell lines were purchased from American Type Culture Collection (ATCC, Manassas, VA, USA). Cells were cultured in RPMI 1640 medium (Labtek Eurobio, Milan, Italy), supplemented with 10% FCS (Euroclone, Milano, Italy) and 2 mM L-glutamine (Sigma-Aldrich, Milano, Italy), at 37 °C and in a 5% CO2 atmosphere. The compounds were dissolved in DMSO in a 30–40 mM stock solution. In cell treatments, the final DMSO concentration never exceeded 0.1%.
(§2) Cells were seeded in a 96-well culture plastic plate (Sarsted, Milan, Italy), at 5 × 10^4 cells/well and, after 24 h, were exposed to increasing concentrations of the different compounds (from 1 nM to 500 nM) dissolved in RPMI 1640 medium. An MTT assay was performed according to Micheletti et al..
(§3) The absorbance at 570 nm was measured using a multi-well plate reader (Tecan, Männedorf, Switzerland), and data were analyzed by Prism GraphPad 8 software and expressed as IC50 nM.

Another series relates to HeLa. In words: MTT assay, HeLa cells. Format: cell-based. To be noted: Homo sapiens, means of four experiments, na = not active, read-out: In vitro cytotoxic activity (IC50), HeLa. As for the experimental part: as §1, §2, §3
A general note: Formazan colour is commonly taken as a measure of viable cells.

The subject of series [2] is HT29 cells. Briefly: Neutral lipid staining (LipidTOX), confocal microscopy. In kind it is cell-based, human. The note with it: 50 nM, 48 h. Here is the method: HT29 cells were grown on glass coverslips, treated as described above, and then washed three times with PBS. The intracellular accumulation of neutral lipids was assessed using LipidTOX™ Red Neutral Lipid Dye (Thermo Fisher Scientific, Waltham, MA, USA) according to the manufacturer’s indications. Specimens embedded in Mowiol were analyzed by confocal microscopy using a Nikon C1si confocal microscope (Nikon, Tokyo, Japan). Fluorescence was excited with a laser tuned at 595 nm, and detected at 650 nm.

Another series is described as follows: MTT assay, Caco-2 cells. In kind it is cell-based, human. The note with it: human, versus normal I407 cells, read-out: S.I. (Selective Index), Caco-2. As for the experimental part:
as §1, §2, §3

For series [3], the system named is human tumor cell lines (HT29, MCF-7, HeLa, U2OS, and J6). Briefly: Antiproliferative activity in the series of human tumor cell lines. In kind it is cell-based. To be noted: MTT; concentration range of 10–500 nM. As for the experimental part:
as §1, §2, §3

Series [4] relates to HT29 cells. In words: ROS assay (DClFDA staining). Format: cell-based, human. The note with it: 24 h treatment. Here is the method: ROS were detected by DClFDA staining. This probe is not fluorescent and is permeable to alive cells, where the acetometoxyesther is cleaved by the […] intracellular estherases. This product is made fluorescent by the concomitant action of ROS, which peroxidize the molecule. The intensity of the fluorescence is, therefore, proportional to the production of intracellular ROS. HT29 cells were grown on a 96-well black plate, treated for 24 h with 4, washed in Hanks’ buffer, stained with 2 µM DClFDA, and incubated at 37 °C in the dark for 30 min. Negative controls were treated in the same way, but DClFDA was not added to these samples. The cells were washed in fresh Hanks’ buffer and resuspended in Hanks’ buffer containing Hoechst 33342 1 µg/mL to stain cell nuclei, to evaluate the cell density in the wells. The fluorescences were read with the plate reader Ensight (Perkin Elmer, Waltham, MA, USA) with excitation wavelengths, respectively, 488 nm for DClF and 360 nm for Hoechst and emission wavelength 535 nm for DClF and 454 for Hoechst 33342. The intensity of DClF fluorescence was normalized on Hoechst fluorescence and is expressed in Arbitrary Units (AU).

In the next series the test system is J6. In words: MTT assay, Jurkat J6 cells. In kind it is cell-based. To be noted: Homo sapiens, means of four experiments, na = not active, read-out: In vitro cytotoxic activity (IC50), J6. Here is the method:
as §1, §2, §3

A further series deals with MCF7. In words: MTT assay, MCF7 cells. Format: cell-based. To be noted: Homo sapiens, means of four experiments, na = not active, read-out: In vitro cytotoxic activity (IC50), MCF7. Here is the method:
as §1, §2, §3

In series [5] the test system is HT29 cells. In words: Western blot of tyrosine residue phosphorylation. Format: cell-based, human. To be noted: most at proteins above 50 KDa. As for the experimental part: (§4) HT29 cells were seeded at a density of 5.0 × 10^4 cells/cm^2 in a Petri dish and treated with 50 nM of compound 4 for 48 h. Cells were then washed with PBS and incubated with the lysis buffer radio immunoprecipitation assay (RIPA) at 4 °C for 15 min with agitation. The proteins were quantified using the Bio-Rad protein assay (Bio-Rad, Hercules, CA, USA) and analyzed by SDS-PAGE and Western blot.
(§5) For the analysis of protein phosphorylation, protein samples (30 μg) were separated on 12% SDS-PAGE in Tris-glycine buffer by electrophoresis at 200 V for 1 h. […] Densitometric analysis was performed with ImageLab 6.1 software (Bio-Rad, Hercules, CA, USA), and bands were normalized to the respective total protein content. For SCD1 analysis, protein samples were resolved on a 10% gel in MOPS buffer at 200 V for 45 min. After electrophoresis and Western blot, the nitrocellulose membrane was incubated overnight at 4 °C with primary antibody anti-SCD1 (Biorbyt, Durham, NC, USA) diluted in PBS-TWEEN 20 0.1%. The membrane was incubated for 1 h with a secondary horseradish peroxidase-conjugated antibody (GE Healthcare, Chicago, IL, USA) and then detected as described above. Quantification was completed by a Fluor-S Max MultiImager (Bio-Rad, Hercules, CA, USA) using a β-tubulin signal as a control.

The test system of the next series is SCD1. Briefly: SCD1 protein, Western blot. Format: cell-based, human. The note with it: 50 nM, 48 h, HT29. As for the experimental part:
as §4, §5

Take `CCCCCCCCC[C@H](CCCCCCCC(=O)O)O[Si](C)(C)C(C)(C)C` [Compound 4, (R)-9-((tert-butyldimethylsilyl)oxy)octadecanoic acid]: in the series with HT29 cells [1], the “changes in the γH2AX marker” value is given as “does not induce any changes”. For the same molecule, the IC50 – broadly, the midpoint of a concentration-inhibition curve – worked out at 36.81 ± 0.18 nM in the series on U2OS, 166.1 ± 0.33 nM with HeLa, 214.1 ± 0.26 nM in the series with J6 and 211.6 ± 0.23 nM in the series with MCF7. Besides, in the series on HT29 cells [2], the “accumulation of lipid droplets (neutral lipids)” value is given as “significantly reduces”. In addition, the selectivity ratio in “MTT assay, Caco-2 cells” turned out to be 2.65. The “antitumor activity across all cell lines tested” value in series [3] was “showed antitumor activity”. Further, the “change in ROS content” value with HT29 cells [4] is “does not lead to a change”. For the same molecule, the “phosphorylation levels at tyrosine residues of proteins” value in the series with HT29 cells [5] is “decrease in phosphorylation levels”. In addition, the SCD1 protein amount entry in the series with SCD1 is “decrease in the amount of its protein product”.
